Blank lines part the entries; values can stand above or below the molecule they belong to. *1 amine or outer side, *2 acyl side, *3 side chain or, on linkers, in order; H or OH if unused. Where a SMILES comes first, the peptide text is derived from it. [ ]: non-standard residue; d: D form. The star is where a group is joined. X1 = CC(C)C[C@H](N[*:1])C(=O)NC(=O)[C@H]1O[C@@H]1C(=O)[*:2]; N(6-aminohexyl)Gly = O=C(CN(CCCCCCN[*:3])[*:1])[*:2]; Biotin = O=C1N[C@H]2[C@H](CS[C@H]2CCCCC(=O)*)N1
Key:
Cathepsin B (Bos taurus) [1] = target: Cathepsin B (Bos taurus) (UniProt P07688); assay: Inhibition of bovine cathepsin B assessed as ratio of Kinact to Ki using Z-Phe-Arg-pNA as substrate by UV/Vis spectrophotometric method
Cathepsin B [2] = target: T1, Cathepsin B (Homo sapiens, UniProt P07858); assay: Inhibition of human liver cathepsin B using Z-Phe-Arg-AMC as substrate incubated for 30 mins by fluorescence based assay
Cathepsin B [3] = target: T1, Cathepsin B; assay: Inhibition of human cathepsin B assessed as ratio of Kinact to Ki using Z-Phe-Arg-NH-Mec as substrate incubated for 15 to 90 mins by fluorometric method
Cathepsin B [4] = target: T1, Cathepsin B; assay: Inhibition of recombinant human cathepsin B expressed in baculovirus expression system using Z-Arg-Arg-AMC as substrate incubated for 20 mins by fluorescence based assay
Cathepsin B [5] = target: T1, Cathepsin B; assay: Inhibition of human liver cathepsin B using Z-Arg-Arg-AMC as substrate preincubated for 15 mins followed by substrate addition and measured after 30 mins by fluorometric method
Cathepsin B (Bos taurus) [6] = target: Cathepsin B (Bos taurus) (UniProt P07688); assay: Inhibition of bovine spleen cathepsin B assessed as ratio of Kinact to Ki by spectrophotometeric method
Cathepsin B [7] = target: T1, Cathepsin B; assay: Inhibition of cathepsin B (unknown origin) assessed as reduction in 7-amino-4-methylcoumarin formation using Z-Arg-Arg-MCA as substrate preincubated for 3 mins followed by substrate addition and measured after 10 mins by fluorescence spectrometric method

Ratio (Cathepsin B (Bos taurus) [1]): 300 M⁻¹ s⁻¹
Compound: CC(=O)N[C@@H](Cc1ccccc1)C(=O)NCC(=O)COC(=O)[C@@H](CC(C)C)NC(=O)OCc1ccccc1

Ki (Cathepsin B [2]): 0.69 nM
Compound: CC(C)CC(NC(=O)c1ccc(-c2ccc(-c3ccccc3)cc2)cc1)C(=O)N(C)N(C)C#N (racemic)

Ratio (Cathepsin B [3]): 152000 M⁻¹ s⁻¹
Compound: CCCNC(=O)[C@H]1O[C@@H]1C(=O)N[C@@H](CC(C)C)C(=O)N1CCC[C@H]1C(=O)O

IC50 (Cathepsin B [4]): < 10 nM
Compound: Cc1cccc(C[C@H](NC(=O)c2ccccc2)C(=O)N[C@H](C#N)COCc2cccc(C(=O)O)c2)c1

Ratio (Cathepsin B (Bos taurus) [1]): 2700 M⁻¹ s⁻¹
Compound: CC(=O)N[C@@H](Cc1ccccc1)C(=O)NCC(=O)COC(=O)[C@H](CC(C)C)NC(=O)OCc1ccccc1

Ratio (Cathepsin B [3]): 1.52e+06 M⁻¹ s⁻¹
Compound: COC(=O)CNC(=O)CNC(=O)[C@H](CC(C)C)NC(=O)[C@H]1O[C@@H]1C(=O)N[C@@H](CC(C)C)C(=O)N1CCC[C@H]1C(=O)O

IC50 (Cathepsin B [5]): 300 nM
Compound: CN1CCN(C(=O)N[C@@H](Cc2ccccc2)C(=O)N[C@H](/C=C/S(=O)(=O)c2ccccc2)c2ccc(-c3ccccc3)cc2)CC1

IC50 (Cathepsin B [4]): < 10 nM
Compound: CCCCC(=O)N[C@@H](Cc1cccc(C)c1)C(=O)N[C@H](C#N)COCc1cccc(C(=O)O)c1

Ki (Cathepsin B [2]): 5 nM
Compound: CC(C)CC(NC(=O)c1cccc(-c2ccncc2)c1)C(=O)N(C)N(C)C#N (racemic)

Ratio (Cathepsin B [3]): 44400 M⁻¹ s⁻¹
Compound: CCOC(=O)[C@H]1O[C@@H]1C(=O)N[C@@H](CC(C)C)C(=O)N1CCC[C@H]1C(=O)O

Ratio (Cathepsin B (Bos taurus) [6]): 105000 M⁻¹ s⁻¹
Compound: CC(C)CCNC(=O)[C@H](Cc1cc(I)c(O)c(I)c1)NC(=O)[C@H]1O[C@@H]1C(=O)O

IC50 (Cathepsin B [7]): 2.28 nM
Compound: CCOC(=O)[C@H]1O[C@@H]1C(=O)N[C@H](C(=O)N1CCC[C@H]1C(=O)O)[C@@H](C)CC

Ratio (Cathepsin B [3]): 567000 M⁻¹ s⁻¹
Compound: CCOC(=O)[C@@H]1O[C@H]1C(=O)N[C@@H](CC(C)C)C(=O)N1CCC[C@H]1C(=O)O

Ki (Cathepsin B [2]): 2 nM
Compound: CC(C)CC(NC(=O)c1ccc(Br)cc1)C(=O)N(C)N(C)C#N (racemic)

Ratio (Cathepsin B [3]): 29400 M⁻¹ s⁻¹
Compound: CCCNC(=O)[C@@H]1O[C@H]1C(=O)N[C@@H](CC(C)C)C(=O)N1CCC[C@H]1C(=O)O

Ratio (Cathepsin B [3]): 1.6e+06 M⁻¹ s⁻¹
Compound: CC(C)C[C@H](NC(=O)CNC(=O)CNCCCCCCNC(=O)CCCC[C@@H]1SC[C@@H]2NC(=O)N[C@@H]21)C(=O)NC(=O)[C@H]1O[C@@H]1C(=O)N[C@@H](CC(C)C)C(=O)N1CCC[C@H]1C(=O)O (H-[N(6-aminohexyl)Gly](Biotin)G[X1]LP-OH)

Ratio (Cathepsin B (Bos taurus) [6]): 12300 M⁻¹ s⁻¹
Compound: CC(C)CCNC(=O)[C@H](Cc1ccccc1)NC(=O)[C@H]1O[C@@H]1C(=O)O

IC50 (Cathepsin B [4]): < 10 nM
Compound: Cc1cccc(C[C@H](NC(=O)c2ccc(Cl)cc2F)C(=O)N[C@H](C#N)COCc2cccc(C(=O)O)c2)c1
